# In patent publication US20230341377A1, “DISCONNECTION AGENTS” (DC Europa Limited, priority 2020, published 2023):
# How the values were obtained:
# Hs578T cells = assay: SMS assay in Hs578T cells; type: cell-based, human; details: versus vehicle and PMA (5 nM), FIG. 2A, 2B, 2D, 2E
# From the text: The SMS assay was developed to assess the transfer of cell dye (for example the acetoxymethyl [AM]-based Calcein AM), between cancer cells. The SMS assay can be applied to any cell lines forming tumour networks such as tumour microtubes (TM) or tunneling nanotubes (TNT), which enable the transfer of molecules across cells. The SMS assay can be used to assess networking capabilities of any cancer cell lines including HepG2 hepatocellular carcinoma cells, Hs578T cell line for human breast cancer, and U373 cell line for human glioblastoma.
# The SMS assay is illustrated in FIG. 1. For the SMS assay, two sets of cells are stained with the cell dye of choice and a customary cell tracker dye (for example cell tracker blue) using established staining techniques (steps 1 and 2). Each set of cells are then co-incubated with the compound of interest to assess its capabilities to modulate the cells small molecule sharing characteristics (step 3). Then the two sets of cells are combined on a plate, for example at a ratio of 1:1, and cultured in the presence of the compound of interest (Step 4).
# Finally, live cells are evaluated for viability and analyzed by flow cytometry for the uptake of cell dye in the […] cells (Step 5). The comparison of cell tracker uptake against positive and negative control enables the assessment of the compound's ability to modulate the tumour networks including those formed by TM and TNTs
# The SMS assay has been applied to assess the modulation of network sharing capabilities of Protein Kinase C Modulators (PKCm) at various concentrations in the Hs578 cell line for human breast cancer, U373 cell line of human glioblastoma, and HepG2 hepatocellular carcinoma cells. PBS vehicle was used as negative control and the PKCm PHORBOL 12-MYRISTATE 13-ACETATE (PMA) at a concentration of 5 nM was used as the positive control.
# FIG. 2A and FIG. 2B show the percentage of cell tracker cells that were accepting the cell dye transfer from separately stained donor cells according to the SMS assay of Example. The percentage of acceptor cells detected is shown in comparison to vehicle (upper horizontal line) and PMA at 5-10 nM concentration (lower horizontal line). Active PKCm in the SMS assay (FIG. 2A) show a decrease in acceptor cells relative to vehicle at certain concentration. […] The upper limit of the tested concentrations was determined as the maximal non-cytotoxic dose.
# PKCδ = PKCδ (Homo sapiens, UniProt Q05655); set-up: key: +—activation; ++—strong activation; details: nPKCs, gene PRKCD; cited from earlier work
# Chain of PKCδ (Q05655 whole entry): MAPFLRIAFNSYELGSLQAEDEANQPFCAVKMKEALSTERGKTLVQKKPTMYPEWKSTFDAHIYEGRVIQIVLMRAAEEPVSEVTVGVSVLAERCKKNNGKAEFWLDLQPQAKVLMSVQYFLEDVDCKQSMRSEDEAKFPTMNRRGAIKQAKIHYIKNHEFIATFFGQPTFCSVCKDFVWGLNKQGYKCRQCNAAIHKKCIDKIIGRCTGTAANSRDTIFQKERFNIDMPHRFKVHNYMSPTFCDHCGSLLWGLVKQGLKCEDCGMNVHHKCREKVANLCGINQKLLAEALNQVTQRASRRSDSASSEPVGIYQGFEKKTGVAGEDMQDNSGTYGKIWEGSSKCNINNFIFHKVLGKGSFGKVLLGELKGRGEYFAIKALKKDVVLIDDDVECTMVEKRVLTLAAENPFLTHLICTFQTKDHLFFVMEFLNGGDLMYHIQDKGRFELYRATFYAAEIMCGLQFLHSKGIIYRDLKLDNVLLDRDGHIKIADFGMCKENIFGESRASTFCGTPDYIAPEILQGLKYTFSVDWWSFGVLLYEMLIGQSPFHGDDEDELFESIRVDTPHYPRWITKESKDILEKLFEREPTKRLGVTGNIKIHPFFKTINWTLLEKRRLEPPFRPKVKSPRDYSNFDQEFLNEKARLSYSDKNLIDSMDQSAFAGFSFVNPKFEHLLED
# PKCε = molecular target: T1, PKCε (Homo sapiens, UniProt Q02156); set-up: key: +—activation; ++—strong activation; details: nPKCs, gene PRKCE; cited from earlier work
# T1 sequence (Q02156 1-737): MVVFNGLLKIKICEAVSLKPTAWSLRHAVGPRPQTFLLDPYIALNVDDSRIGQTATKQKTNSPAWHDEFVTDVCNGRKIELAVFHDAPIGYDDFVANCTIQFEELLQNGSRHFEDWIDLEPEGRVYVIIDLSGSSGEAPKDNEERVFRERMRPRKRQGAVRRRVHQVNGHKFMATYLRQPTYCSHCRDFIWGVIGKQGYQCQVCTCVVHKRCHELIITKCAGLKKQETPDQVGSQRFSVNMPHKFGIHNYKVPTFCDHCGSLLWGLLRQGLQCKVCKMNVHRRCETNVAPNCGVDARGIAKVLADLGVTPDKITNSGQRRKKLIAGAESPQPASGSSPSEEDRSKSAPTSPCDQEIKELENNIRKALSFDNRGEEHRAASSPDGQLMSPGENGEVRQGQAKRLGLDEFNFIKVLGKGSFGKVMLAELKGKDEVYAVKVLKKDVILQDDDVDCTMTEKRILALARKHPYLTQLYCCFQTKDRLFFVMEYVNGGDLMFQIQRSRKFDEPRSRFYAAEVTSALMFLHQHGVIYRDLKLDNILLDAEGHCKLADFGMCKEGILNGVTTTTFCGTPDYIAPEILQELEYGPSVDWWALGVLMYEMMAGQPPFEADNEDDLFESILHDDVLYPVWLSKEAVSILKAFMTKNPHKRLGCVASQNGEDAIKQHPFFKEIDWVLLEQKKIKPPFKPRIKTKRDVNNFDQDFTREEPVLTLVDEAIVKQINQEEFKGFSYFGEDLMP
compound,measurement,setting,value
"CC(C)[C@H]1C(=O)N[C@H](CO)Cc2cc(NC(=O)/C=C/C=C/c3ccc(C(F)(F)F)cc3)ccc2N1C [TPPB, (2E,4E)-N-[(2S,5S)-1,2,3,4,5,6-Hexahydro-5-(hydroxymethyl)-1-methyl-2-(1-methylethyl)-3-oxo-1,4-benzodiazocin-8-yl]-5-[4-(trifluoromethyl)phenyl]-2,4-pentadienamide]",cell dye-sharing in the SMS assay (percentage of acceptor cells),Hs578T cells,inhibition of cell dye-sharing
same,activation of PKCδ,PKCδ,+
same,activation of PKCε,PKCε,+
